Where “and” joins values, the source holds several entries; their conditions need not be identical. Equal values may be shown once. No end group written: not given here.
Tests used:
[1] = tested on: Monocyte-derived macrophages (CD23+); assay: Quantification of inflammatory response: nitrites (Greiss) from CD23-activated human macrophages, % inhibition relative to controls; type: cell-based; details: human macrophages activated through CD23
Excerpt: Monocytes are isolated from normal human peripheral blood. Samples are collected from normal volunteers (20-50 years) by blood bank. They are all tested for the absence of HIV or HBV contaminations prior to use. Human normal mononuclear cells are obtained by Ficoll (Histopaque, Sigma) gradient separation of peripheral blood leukocytes. Monocytes are separated from lymphocytes by adherence to plastic dishes coated with fetal calf serum (FCS) as described (Vouldoukis I., et al., Proc. Natl. Acad. Sci. USA., 92: 7804-7808 1995). Following this procedure, >90% of cells express CD14 antigen and display cytochemical characteristics of monocytes. The cells are then incubated in DMEM supplemented with L-non-essential amino acids, sodium pyruvate, glutamine, penicillin, streptomycin, and 10% FCS (all from Gibco Laboratories, Grand Island, N.Y.). Above culture medium, chemicals, and FCS are tested for the absence of direct activation effect on human monocytes (CD23 expression and TNF-α production as activation markers). Following 24-48 hr adherence to culture flasks, these cells differentiate into macrophage-like cells displaying non-specific esterase activity that is inhibited by sodium fluoride.
Normal human donor-derived adherent cells have low if any surface CD23 expression and are designated in the present work as macrophages. CD23 expression is obtained following cell incubation with recombinant human interleukin 4 ([…]). […] Tissue-derived macrophages are mostly CD23^+.
Monocyte-derived macrophages (CD23^+) are activated through the cross-linking of their CD23 surface molecules by appropriate MoAb (20 μg/ml, clone 135, IgG1κ isotype) or by human IgE/anti-IgE complexes (IgE, Stallergene, Paris, France; goat anti-human-IgE, Nordic Immunology, Tilburg, The Netherlands). This activation pathway promotes the activation of iNOS mRNA transcription and the generation, by macrophages, of various inflammatory mediators such as nitric oxide (NO), TNF-α, reactive oxygen radicals, IL-1, and IL-6 (for, a review see: Dugas B, et al., Immunol Today, 16:574-580(1995)).
Following 1-3 day incubation at 37° C., 5% CO2 in humid atmosphere, macrophages are analyzed for their inflammatory response as following:
48-96 hr incubation: Collection of supernatants for the detection of cytokines and nitrites. Nitrites are quantified by Greiss method (Davies et al., Methods in Molecular Biology, 225:305-320, 2003) while IL-1, IL-6 and TNF-α: were quantified using commercial ELISA kits. The following antibodies and reagents were utilized:
Following quantitation of nitrites, a percentage inhibition relative to controls is calculated.

[2] = tested on: macrophages derived from peripheral blood or the synovial fluid of patients with Rheumatoid Arthritis; assay: TNF-α generation by macrophages from peripheral blood or synovial fluid of patients with Rheumatoid Arthritis; type: cell-based, human; details: for level of TNF-α: p30A + CD23-Ab
Procedure: (§1) CD23^+ cells are incubated in the presence or the absence of an inhibitory peptide (p30A) for 4 hours. CD23-MoAb or IgE/anti-IgE immune complexes are added. Following 3-5 day incubation, cell supernatants are harvested and the level of TNF-α, quantified by specific ELISA. The effect of CD23-Peptide or a negative control on inflammatory functions of macrophages derived from peripheral blood or the synovial fluid of patients with Rheumatoid Arthritis is also investigated.

[3] = tested on: rat peritoneal macrophages and rat peripheral macrophages; assay: NO production from rat peritoneal and peripheral macrophages induced by IgE/DNP-BSA; type: cell-based; details: peptide 4 hours, 3-5 day incubation
Procedure: NO production from rat peritoneal macrophages and rat peripheral macrophages is also determined. Peritoneal macrophages are highly CD23^+ and produce much higher quantities of pro-inflammatory mediators compared to peripheral blood-derived cells. CD23^+ cells are incubated in the presence or the absence of an inhibitory peptide (p30A) for 4 hours. IgE/DNP-BSA is added to induce CD23 cross-linking. L-NIL is a specific inhibitor of NOS-II. Pep− is a negative control peptide. Following 3-5 day incubation, cell supernatants are harvested and the level of nitrites quantified by Greiss reaction (Davies et al., Methods in Molecular Biology, 225:305-320, 2003).

[4] = tested on: CD23+ cells; assay: Inhibition of NO generation from activated macrophages (nitrites by Greiss reaction); type: cell-based, human; details: peptide 4 hours, then IgE/anti-IgE; 3-5 day incubation
Procedure: (§2) For inflammatory functions, cells are pre-incubated with CD23-counterstructures during 4 hours prior to their incubation with CD23-MoAb or IgE/anti-IgE complexes. Cell supernatants are collected 2-4 days later and tested for their contents in various mediators.
Inflammatory responses of human macrophages almost correlated with in vivo generation of nitric oxide by these cells. We use this inflammatory mediator as a marker of cell activation.
CD23^+ cells are incubated in the presence or the absence of an inhibitory peptide (p30A) for 4 hours. CD23-MoAb or IgE/anti-IgE immune complexes are added. Following 3-5 day incubation, cell supernatants are harvested and the level of nitrites quantified by Greiss reaction (Davies et al., Methods in Molecular Biology, 225:305-320, 2003).

[5] = tested on: CD23+ cells; assay: Inhibition of TNF-α generation from activated macrophages (ELISA); type: cell-based, human
Procedure: as §2
In addition to NO, the effect of peptides on the production of TNF-α, a well-documented effector factor during inflammatory diseases, is also tested.
CD23^+ cells are incubated in the presence or the absence of an inhibitory peptide (p30A) for 4 hours. CD23-MoAb or IgE/anti-IgE immune complexes are added. Following 3-5 day incubation, cell supernatants are harvested and the level of TNF-α, quantified by specific ELISA.

[6] = tested on: macrophages derived from synovial fluid of patients with Rheumatoid Arthritis; assay: NO generation by macrophages derived from synovial fluid of patients with Rheumatoid Arthritis; type: cell-based, human; details: RA synovial fluid macrophages
Procedure: as §1, with “[…])” for “(p30A)”, “nitrites” for “TNF-α,”, “Greiss reaction (Davies et al., Methods in Molecular Biology, 225:305-320, 2003).” for “specific ELISA.”, “from” for “from peripheral blood or the”

[7] = tested on: arthritic rats; assay: Treatment of arthritic rats (Mycobacterium butyricum-induced arthritis); type: in vivo, Lewis rats
Procedure: On day 0, 6-week old female Lewis rats weighing 145-155 g are injected subcutaneously with an arthritis-inducing emulsion. The rats are injected with 300 μl of the emulsion which contains: • 2 mg/rat heat-inactivated Mycobacterium butyricum diluted into; • 240 μl of Vaseline; • 30 μl of Tween-20; and • 30 μl of PBS.
The immunization step is repeated on day 7. The rats present arthritis signs by days 15 have to 21. Arthritic signs are assigned a clinical score (1-4). By day 40, the clinical scores increase from 1 to 3 or 4. Slower weight progression is also observed in immunized rats (FIG. 1a).
However, subcutaneous injection of 5 mg of p30A after the appearance of clinical signs results in complete remission of arthritic symptoms for 50% of the rats (FIG. 1b) as well as decreased clinical scores in 25% of the remaining rats.

[8] = tested on: Adjuvant arthritis (AA) rats; assay: In vivo prevention and treatment of adjuvant arthritis in rats with p30A; parameters: species or system Lewis rats
Procedure: Each group of animals comprises eight rats. Female Lewis rats (Janvier, Le Genest St Isle, France) are housed under standard laboratory conditions and the animals are allowed free access to food and water. The temperature is kept at 22±2° C. and a 12-hour light/dark schedule is maintained. All animal procedures are performed in strict accordance with the guidelines issued by the European Economic Community “86/609”. Adjuvant arthritis (AA) is induced in six weeks-old animals by subcutaneous injection at the base of the tail of 300 μl (1.8 mg) of inactivated Mycobacterium butyricum (Difco Laboratories, Detroit, Mich.) diluted in emulsion of 8 ml Vaseline, 1 ml polysorbate 80, and 1 ml PBS (Phosphate Buffer Saline, BioWhittaker, Walkersville, Md.). Rats are boosted one week later with the same dose of antigen and observed for up to 50 days following immunization for clinical symptoms of arthritis. Evaluation of AA severity is performed by two independent observers with no knowledge of the treatment protocol. The severity of AA in each paw is quantified daily by a clinical score measurement from 0 to 2 as following: no signs of inflammation (0); swelling alone (>2 fold paw diameter) (0.5) or swelling/immobility (1.0) of one paw; swelling (1,5) or swelling/immobility (2,0) of two paws. Weight evolution of the animals is measured daily. Rats are injected with peptides or peptidomimetics (dissolved in 0.1% DMSO) I.C. every two days (day 0, 2, 4, 6, and 8) during the initiation of inflammation (preventive) or following the appearance of the inflammatory signs. As negative control, rats are injected with saline.
Clinical scores are determined as described above, and the cumulative clinical score is plotted against days post-immunization (FIGS. 2, 3, and 4).
In each of FIGS. 2, 3, and 4, arrows below the x-axis indicate the days on which IC injections were administered.

[9] = Peripheral Macrophages of RA patients
[10] = subcutaneous injection of 5 mg after the appearance of clinical signs

How did the “% Inhibition (nitrites relative to controls; inhibition of iNOS production)” value [1] turn out when Ac N W CO2H [Compound 411] was run?
Its value is 84%.

For “G[allyl-] N W G[allyl-] S [Compound 490]”, which “% Inhibition (nitrites relative to controls; inhibition of iNOS production)” value [1] is on record?
Its value is 81%.

For Ac n w CO2H [Compound 492], which “% Inhibition (nitrites relative to controls; inhibition of iNOS production)” value [1] is on record?
Its value is 77%.

Which “% Inhibition (nitrites relative to controls; inhibition of iNOS production)” value [1] does the source give for Ac w n CO2H [Compound 491] here?
Its value is 94%.

FHENWPS [p30A] was tested. Which “% Inhibition of TNF-α” value [2, 9] did it give?
Its value is 73%.

What about the “level of TNF-α” value [2, 9] of the same substance?
Its value is 40 pg TNF-α/ml.

And the “% Inhibition of TNF-α” value ([2]; SF Macrophages of RA patients)?
Its value is 41%.

And the “level of TNF-α” value ([2]; SF Macrophages of RA patients)?
Its value is 140 pg TNF-α/ml.

What about the “IgE/DNP-BSA-induced NO production by macrophages” value [3] of the same substance?
The value was “inhibits IgE/DNP-BSA-induced NO production”.

And the “level of nitrites [NO2-]” value [4]?
The value was 2.6 µM and 1.4 µM.

What about the “% Inhibition of TNF-α” value ([5]; p30A + CD23-Ab versus CD23-Ab) of the same substance?
The value was 47% and 54%.

And the “level of TNF-α” value ([5]; peptide 4 hours, then CD23-Ab, 3-5 day incubation)?
The value was 77 pg TNF-α/ml and 89 pg TNF-α/ml.

What about the “level of nitrites [NO2-]” value ([6]; peptide + CD23-Ab) of the same substance?
The value was 7.9 µM and 9.5 µM.

What about the “level of nitrites [NO2-]” value ([6]; peptide alone (no CD23-Ab)) of the same substance?
The value was 8.5 µM and 10.3 µM.

What about the “remission of the arthritic condition” value ([7]; intraperitoneal injection or intravenous treatment) of the same substance?
Its value is “do not induce remission”.

And the “remission of arthritis (FIG. 1b)” value ([7]; subcutaneous injection of 5 mg)?
The value was “results in remission”.

And the “complete remission of arthritic symptoms” value [7, 10]?
The value was 50 % of the rats.

What about the decreased clinical scores [7, 10] of the same substance?
Its decreased clinical scores is 25 % of the remaining rats.

What about the arthritis appearance ([7]; unique injection (intraperitoneal or subcutaneous) at day 0) of the same substance?
Its arthritis appearance is “no affect on arthritis appearance”.

What about the “cumulative clinical score, preventive treatment (FIG. 2)” value ([8]; injections every two days from immunization, two dosage regimes, versus control rats) of the same substance?
The value was “clearly superior clinical scores compared to control rats”.

And the “weight gain (FIG. 4)” value ([8]; rats with arthritic symptoms, versus untreated arthritic rats)?
Its value is “produced weight gain”.

And the “cumulative clinical score, therapeutic treatment (FIG. 3)” value ([8]; treated from day of first symptoms, 3 dosage regimes, versus control rats)?
The value was “clear therapeutic effect”.

With Ac N W BetaA CO2H [Compound 410] as the substance, how does the “% Inhibition (nitrites relative to controls; inhibition of iNOS production)” value [1] read?
Its value is 61%.

F H E N W beta A S [Compound 328] was tested. Which “% Inhibition (nitrites relative to controls; inhibition of iNOS production)” value [1] did it give?
Its value is 26%.

Which “% Inhibition (nitrites relative to controls; inhibition of iNOS production)” value [1] does the source give for H E N W Sar S [Compound 398] here?
The value was 74%.

“NH2 G[allyl-] N W G[allyl-] [Compound 489]” was tested. Which “% Inhibition (nitrites relative to controls; inhibition of iNOS production)” value [1] did it give?
Its value is 62%.

For H E N W S [Compound 437], which “% Inhibition (nitrites relative to controls; inhibition of iNOS production)” value [1] is on record?
Its value is 56%.

From US8071552B2, “Peptides and peptidomimetics binding to CD23” (Universite Bordeaux 2, priority 2004, dated 2011)
